Results taken from patent publication EP0738149B1 (priority 1994, dated 1995).
Counter-ions that a name gives are not always drawn. Like-named read-outs stand apart in the source and are kept apart here.

Experiments:
[1] = in vivo; conditions: rat, in vivo, po
Method: (§1) Neurotoxicity of the claimed agents was also assessed in mice (i.p. administration) by the rotorod ataxia test and/or in rats (p.o. administration) by positional sense test and gait stance test. […] The term quantitating the neurotoxicity is the medial neurological toxic dose (TD50), was determined in the above tests.

[2] = Neurotoxicity in mice (rotorod ataxia test), i.p.; conditions: mouse, in vivo, ip
Method: as §1

[3] = system: mice; assay: Maximal electroshock (MES) model in mice, i.p.;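 also: Electroshock-induced convulsion model serving to demonstrate antiepileptic efficacy against generalized and partial seizures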; type: in vivo; conditions: Mus musculus, ip, Table 15
[4] = system: male ICR albino mice; assay: Hypobaric hypoxia survival time in mice; type: in vivo
Method: Dessicator B was disconnected and allowed to equilibrate with room air whilst dessicator A was evacuated to a pressure of 100mmHg. […] The survival time from the moment of induction of hypoxia to the time of cessation of respiration was recorded for each mouse for a maximum of 15 minutes after which time room air was reintroduced to dessicator B. Survivors were monitored for signs of lethargy or vitality.
Effect of drug treatment was assessed as the percent of the survival time of the drug treated group with respect to the saline injected or vehicle injected control group. Control groups were run twice, before and after each experimental group and consisted of 12-16 mice in groups of 4 mice. Each experimental group always consisted of 4 mice to ensure a constant residual volume of oxygen in all tests. The effect of each dose of test drug was determined in duplicate i.e. two groups of 4 mice.
All drugs were administered intra-peritoneally at the dose indicated one hour prior to exposure to hypoxia.

[5] = system: rats; assay: Maximal electroshock (MES) model in rats, p.o.;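 as to all read-outs here: rat MES model gauging antiepileptic efficacy versus generalized and partial seizures after oral dosing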; type: in vivo; conditions: for RATS MES 50: p.o.; for ED50: Rattus norvegicus, po
[6] = system: rats; assay: Closed head injury in rats: motor function (Neurological Severity Status), Experiments 4A-4E
[7] = system: mechanically dissociated neonatal rat cerebellum; assay: Reversal of NMDA induced cell death in cultures of neonatal rat cerebellum; type: cell-based; conditions: separate experiment, Maximum Protection possible 90%
Method: The cerebellum was aseptically dissociated from 6 or 7-day old rat pups and placed in a 15ml sterile plastic conical tube containing 3ml of Dulbecco's modified Eagle's medium (DMEM) with a high glucose concentration ([…]) and 2mM (v/v) L-glutamine and an antibiotic antimitotic mixture. The cerebella were then dissociated after 20-25 passages through a sterile 13 gauge, 10cm long stainless steel needle attached to a 5ml syringe with an inserted 45 micrometer pore nylon sieve. The dissociated cells were centrifuged at 200g for 5 minutes. The supernatant was discarded and the cells resuspended in medium enriched with 15% (v/v) heat inactivated fetal calf serum. Cell viability was determined by the tryptan blue exclusion test.
Cells were plated at a density of 200/mm^2 on poly-L-lysine coated surfaces. Poly-L-lysine coated glass coverslips were prepared at least one hour in advance of plating by immersing sterile coverslips in sterile distilled water solution containing 15 microgram/ml poly-L-lysine, and washing in sterile water just prior to use. The plated cells were covered with enriched medium and incubated at 37°C in an atmosphere of 5% CO2 in air and 97% humidity. After three days in culture, the media was replaced with media containing the desired test compound. Each test compound was tested in duplicate. Toxic-dose response was determined for each compound.
Four groups were run in each set of experiments; • I. Control, consisting of enriched media alone, • II. N-methyl-D-aspartate (NMDA, 1mM for 3 hours) as the cytotoxic challenge, • III. Test compound plus NMDA, and • IV. Positive control, spermine(0.01 micromoles) plus NMDA.
Nerve cell survival was evaluated by phase contrast microscopy and tryptan blue staining after 24 hours.
Surviving cells in culture are measured relative to control (100%), as described above. Percent protection is the Cell Survival for the test compound minus the NMDA effect. Thus, maximal protection is 100% minus 30% NMDA effect i.e. […]. The Effective Protection was calculated as the percent of the Percent Protection (X) divided by the maximal protection value (e.g. X x 100/70).

[8] = system: rats; assay: Neurotoxicity in rats (positional sense test and gait stance test), p.o.; conditions: rats, p.o.; Table 16
Method: as §1

[9] = system: mice; assay: Neurotoxicity in mice (rotorod ataxia test), i.p.
Method: as §1

[10] = system: Male mongolian gerbils; assay: Global brain ischemia in gerbils (CA1 pyramidal neurons); type: in vivo; conditions: 3 injections, fraction of hippocampi protected from ischemia, 14 days post-ischemia
Method: Each artery was clamped for 5 minutes with aneurysm clips to produce global brain ischemia. The anesthesia was discontinued upon clamping. After 5 minutes the clamps were removed and the wound closed with skin clips.
For treatment, the test compound or vehicle were injected intra-peritoneally (ip) in a volume of 50 microliters of solvent per 10g body weight. The first injection was given two minutes after clamp removal, and thereafter daily for the next 2 post-operative days (total of 3 injections).
Seven groups each of 4-8 animals were compared: • I. Control; (sham- or unoperated and saline treated), • II. Vehicle treated, unoperated (when solvent is other than saline), • III. Ischemia - untreated or saline treated), • IV. Ischemia - vehicle treated (when solvent is other than saline), • V. Ischemia - Test compound treated, one sub-group per concentration tested, • VI. Ischemia and pentobarbital (40 mg/kg) as positive control).
Analysis of neuronal damage was performed 14 days post-ischemia by counting pyramidal neurons throughout the CA1 layer of the anterior hippocampus in […] thick (paraffin) coronal brain sections stained with hematoxylin and erosin.
Percent Protection values represent the fraction of hippocampi protected from ischemia in a group of animals treated with the stated dose of compound.

[11] = system: rats; conditions: Rattus norvegicus, po, read-out: RATS scMet ED50
[12] = system: mice; conditions: Mus musculus, ip, read-out: MICE scMet ED50, mice, i.p.; Table 16
[13] = 50 mg/kg ip one hour prior to hypoxia
[14] = 100 mg/kg ip one hour prior to hypoxia
[15] = Exp 4A, 0.1mg/kg i.p. at 0,4,8 and 12 hours post-trauma
[16] = Exp 4B, 0.1mg/kg once a day for 14 days

| Structure (SMILES) | TD50 [1] [mg/kg] | TD50 ([2]; MICE TD50, mice, Table 15) [mg/kg] | ED50 [3] [mg/kg] | PROTECTION % OF RESPECTIVE CONTROL [4, 13] [% OF RESPECTIVE CONTROL] | PROTECTION % OF RESPECTIVE CONTROL [4, 14] [% OF RESPECTIVE CONTROL] | RATS MES 50 ([5]; Table 15) [mg/kg] | RATS TD50 [8] [mg/kg] | other results |
| --- | --- | --- | --- | --- | --- | --- | --- | --- |
| C[C@H]1Cc2ccccc2[C@H]1N [Example 40, (rac)-cis-2-Methyl-1-aminoindan.HCl] | > 50 | < 100 | < 100 | 374±190 | 569±173 | <50 |  |  |
| N[C@H]1CCc2ccccc21 [SAI, (S)-1-aminoindan] | > 500 |  |  | 174±39 | 404±244 |  | >500 | NSS 1hr [6, 15]: 16.4; NSS 24hr [6, 15]: 10.8; ΔNSS ([6]; Exp 4A, 0.1mg/kg i.p. at 0,4,8 and 12 hours post-trauma, change 1 hour to 24 hours): 5.6±0.5; NSS at 1hr [6, 16]: 16.6±0.3; ΔNSS at 24hr [6, 16]: 5.5±0.4; ΔNSS at 48hr [6, 16]: 6.8±2.7; ΔNSS at 7d [6, 16]: 8.3±1.0; ΔNSS at 14d [6, 16]: 9.5±1.0; EFFECTIVE PROTECTION ([7]; 0.01 µM): 43%; EFFECTIVE PROTECTION ([7]; 0.05 µM): 57%; TD50 [2]: 25 mg/kg; MICE TD50 ([9]; mice, i.p., Table 16): 25 mg/kg; PROTECTION % OF RESPECTIVE CONTROL ([4]; dose cell empty (line below 50 mg/kg ip)): 264±66 % OF RESPECTIVE CONTROL; PERCENT PROTECTION ([10]; 0.1 mg/kg ip): 0%; PERCENT PROTECTION ([10]; 1.0 mg/kg ip): 50.0%; PERCENT PROTECTION ([10]; 10.0 mg/kg ip): 75.0%; ED50 ([5]; read-out: RATS MES 50): 17 mg/kg |
| NC1CCc2ccccc21 (racemic) [A, 1-aminoindan] | > 168 |  |  |  |  |  | >168 | TD50 [2]: > 100 mg/kg; MICE TD50 ([9]; mice, i.p., Table 16): >100 mg/kg; ED50 ([5]; read-out: RATS MES 50): 36 mg/kg |
| Cc1cccc2c1C(N)CC2 (racemic) [Example 28, (rac)-7-Methyl-1-aminoindan.HCl] | > 50 | < 100 | < 100 | 361±106 | 941±34 | <50 |  |  |
| C#CCN[C@@H]1CCc2ccccc21.Cl [E, (R)-N-propargyl-1-aminoindan HCl salt] |  |  | 79 |  |  |  |  | ED50 [11]: > 154 mg/kg; ED50 ([5]; read-out: RATS MES 50, rats, p.o., Table 15): < 50 mg/kg |
| O=C(NC1CCc2ccccc21)c1ccccc1 (racemic) [Example 46, (rac)-N-Benzoyl-1-aminoindan] |  |  | 82 |  |  |  |  | TD50 ([2]; MICE TD50): 500 mg/kg; MICE TD50 ([9]; mouse, in vivo, ip): >500 mg/kg; ED50 [12]: > 500 mg/kg |
| CN(C)C1CCc2ccccc21 (racemic) [Example 15, (rac)-N,N-Dimethyl-1-aminoindan.HCl] | > 50 | < 100 |  |  |  | 50 | >50 | TD50 ([2]; MICE TD50, mice, Table 16): < 100 mg/kg |
| C[C@@H]1Cc2ccccc2[C@H]1N [Example 39, (rac)-trans-2-Methyl-1-aminoindan.HCl] | > 50 | < 100 | < 100 | 600±213 | 798±249 | <50 |  |  |
